Like-named read-outs stand apart in the source and are kept apart here.
Key:
[1] = test system: TH17 cell differentiation (human CD4+CCR6+ T cells); assay: Human Th17 cell differentiation assay (IL-17A ELISA); assay type: cell-based; conditions: 96 h, IL-17A in extracellular media by ELISA, 4 days, mean, read-out: Inhibition of TH17 cell differentiation-Mean IC50
[2] = target: RORγ ligand binding domain (Homo sapiens (Human), UniProt P51449); assay: biochemical; assay type: biochemical
Experimental: Various concentrations of test ligands in 0.1 microlitres DMSO were dispensed to assay plates using an Labcyte Echo acoustic dispenser. Two pre-mixes were prepared and incubated for 1 hr at room temp in the dark.

RORγ ligand binding domain, sequence (P51449 whole entry, looked up, the tested form may be a part): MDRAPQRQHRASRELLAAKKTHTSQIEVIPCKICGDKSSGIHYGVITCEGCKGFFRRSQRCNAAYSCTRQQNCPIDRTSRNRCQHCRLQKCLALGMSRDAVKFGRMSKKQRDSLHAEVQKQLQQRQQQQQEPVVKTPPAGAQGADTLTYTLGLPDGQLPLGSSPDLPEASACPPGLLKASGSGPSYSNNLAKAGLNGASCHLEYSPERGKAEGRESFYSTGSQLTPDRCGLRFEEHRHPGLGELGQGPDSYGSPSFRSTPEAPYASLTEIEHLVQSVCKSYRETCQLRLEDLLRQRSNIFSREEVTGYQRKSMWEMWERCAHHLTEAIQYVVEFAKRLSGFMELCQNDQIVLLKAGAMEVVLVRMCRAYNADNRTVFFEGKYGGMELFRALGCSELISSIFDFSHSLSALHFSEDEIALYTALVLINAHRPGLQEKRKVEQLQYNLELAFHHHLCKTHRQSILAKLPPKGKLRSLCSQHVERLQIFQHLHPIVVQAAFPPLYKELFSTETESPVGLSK

Compound	IC50 [1]	IC50 ([2]; read-out: RORγ FRET-Mean IC50)	IC50 [2]
O=C(O)c1ccc(-n2cc(C(=O)c3c(F)cccc3C(F)(F)F)c3cccc(F)c32)cc1 [Comparator 2, 4-[7-fluoro-3-[2-fluoro-6-(trifluoromethyl)benzoyl]-1-H-indol-1-yl]benzoic acid, reference compound]	48.2 nM	61.9 nM	
O=C(O)c1ccc(-n2cc(C(=O)c3c(F)cccc3C(F)(F)F)c3cccc(F)c32)c(F)c1 [Comparator 5, 3-fluoro-4-[7-fluoro-3-[2-fluoro-6-(trifluoromethyl)benzoyl]-1H-indol-1-yl]benzoic acid, reference compound]	47 nM	111 nM	
O=C(O)c1ccc(-n2cc(C(=O)c3c(Cl)cccc3C3CC3)c3cccc(F)c32)c(F)c1 [Compound 4, 4-[3-(2-chloro-6-cyclopropyl-benzoyl)-7-fluoro-1H-indol-1-yl]-3-fluoro-benzoic acid]	31.9 nM		42.9 nM
O=C(O)c1ccc(-n2cc(C(=O)c3c(Cl)cccc3C(F)(F)F)c3ccccc32)cc1 [Comparator 1, 4-[3-[2-chloro-6-(trifluoromethyl)benzoyl]-1H-indol-1-yl]benzoic acid, reference compound]	45.3 nM		
O=C(O)c1ccc(-n2cc(C(=O)c3c(Cl)cccc3C(F)(F)F)c3cccc(F)c32)cc1O [Compound 2, 4-[3-[2-chloro-6-(trifluoromethyl)benzoyl]-7-fluoro-indol-1-yl]-2-hydroxy-benzoic acid]	12.6 nM	17.9 nM	
O=C(O)c1ccc(-n2cc(C(=O)c3c(Cl)cccc3C(F)(F)F)c3cccc(F)c32)c(F)c1 [Compound 3, 4-[3-[2-chloro-6-(trifluoromethyl)benzoyl]-7-fluoro-indol-1-yl]-3-fluoro-benzoic acid]	15 nM	37.9 nM	
